According to patent US11866689B2, “Splice-switching oligonucleotides and methods of use” (Duke University, priority 2018, dated 2024):

Columns and labels:
Assay type in all cases: cell-based
ARv7 [1] = experiment: ARv7 level after morpholino treatment of LN95 cells (RT-qPCR); details: 0-2.5 uM in complete media, 72 h, FIG. 6A
Method: (§1) Briefly, LN95 cells were seeded in a 12 well plate in complete media (RPMI+10% charcoal stripped FBS) at 250,000 cells per well and incubated at 37 C and 5% CO2 in a humidified incubator. After 24 hours, 0, 0.5, 1, 1.5, 2, or 2.5 uM of ARv7 morph 1 morpholino or control morpholino was diluted in complete media and added to each well. After 72 additional hours of incubation, media was removed and cells were collected in RNA lysis buffer.
(§2) RNA was extracted using the Quick-RNA Miniprep kit (Zymo Research) following manufacturer's protocol. RNA was eluted in water and quantified using a Qubit fluorometer (Thermo Fisher). Reverse transcription (RT) reactions were performed using the ABI High Capacity cDNA Reverse Transcription Kit (Thermo Fisher) using 1 ug of RNA. RT reactions were incubated following manufacturer's protocol in a SimpliAmp thermocycler (Life Technologies). […] Fold Change from Scramble was calculated using the 2^-ΔΔCT method with TBP as the housekeeping gene and the control morpholino as the treatment control.

full length AR [2] = experiment: Full length AR level after morpholino treatment of LN95 cells (RT-qPCR); details: 0-2.5 uM in complete media, 72 h, FIG. 6B
Method: as §1, §2

ARv7 [3] = experiment: ARv7 level after SSO transfection of prostate cancer cells (RT-qPCR, Western blot); details: for ARv7 (fold change from Scramble): vs Scramble/Scr control
Method: A total of 6.25, 25, 100, or 400 nM of ARv7 SSO-6, 100 nM of ARv7 SSO-6ext, or 100 or 400 nM of Scrambled SSO was diluted in Opti-MEM and mixed with 2 uL Dharmafect 1 (LN95) or RNAiMax (VCaP) diluted in Opti-MEM for a total of 200 uL. The SSO-transfection reagent mixtures were incubated for 10 minutes at room temperature followed by plating in a 12 well plate. A total of 250,000 cells diluted in 800 uL Optimem were seeded atop the SSO-transfection reagent mixtures and incubated for 4 hours at 37° C. and 5% CO2 in a humidified incubator. Media was replaced with complete media after 4 hours (RPMI+10% charcoal stripped FBS for LN95 cells and DMEM+10% FBS for VCaP cells). After an additional 72 or 96 hours of incubation, media was removed and cells were collected in RNA lysis buffer or RIPA buffer containing protease inhibitor (Thermo Fisher).
RNA was extracted using the Quick-RNA Miniprep kit (Zymo Research) following manufacturer's protocol. RNA was eluted in water and quantified using a Qubit fluorometer (Thermo Fisher). Reverse transcription (RT) reactions were performed using the ABI High Capacity cDNA Reverse Transcription Kit (Thermo Fisher) using 1 ug of RNA. RT reactions were incubated following manufacturer's protocol in a SimpliAmp thermocycler (Life Technologies). […] RT-qPCR was run on a ViiA7 Real-Time PCR System (Applied Biosystems) using the following conditions: 95° C. for 2 minutes, 40×(95 C for 1 second, 60° C. for 20 seconds). Fold Change from Scramble was calculated using the 2^-ΔΔCT method with TBP as the housekeeping gene and the Scrambled SSO as the treatment control.
RNA was extracted using the Quick-RNA Miniprep kit (Zymo Research) following manufacturer's protocol. RNA was eluted in water and quantified using a Qubit fluorometer (Thermo Fisher). […] Fold Change from Scramble was calculated using the 2^-ΔΔCT method with TBP as the housekeeping gene and the Scrambled SSO as the treatment control.

full length AR [4] = experiment: Full length AR level after SSO transfection of prostate cancer cells (RT-qPCR, Western blot); details: prostate cancer cell lines LN95, VCaP; 6.25-400 nM transfected; vs Scramble/Scr control; FIG. 2
Method: (§3) For FIGS. 2 and 3, the experimental methods is described briefly. A total of 6.25, 25, 100, or 400 nM of ARv7 SSO-6, 100 nM of ARv7 SSO-[…], or 100 or 400 nM of Scrambled SSO was diluted in Opti-MEM and mixed with 2 uL Dharmafect 1 (LN95) or RNAiMax (VCaP) diluted in Opti-MEM for a total of 200 uL. The SSO-transfection reagent mixtures were incubated for 10 minutes at room temperature followed by plating in a 12 well plate. A total of 250,000 cells diluted in 800 uL Optimem were seeded atop the SSO-transfection reagent mixtures and incubated for 4 hours at 37° C. and 5% CO2 in a humidified incubator. Media was replaced with complete media after 4 hours (RPMI+10% charcoal stripped FBS for LN95 cells and DMEM+10% FBS for VCaP cells). After an additional 72 or 96 hours of incubation, media was removed and cells were collected in RNA lysis buffer or RIPA buffer containing protease inhibitor (Thermo Fisher). […] RNA was eluted in water and quantified using a Qubit fluorometer (Thermo Fisher). […] Fold Change from Scramble was calculated using the 2^-ΔΔCT method with TBP as the housekeeping gene and the Scrambled SSO as the treatment control. Protein samples were quantified using a Bradford assay (Pierce Scientific) and 25 ug of each cell extract was mixed with SDS sample buffer and submitted to SDS-PAGE. […]

ARv9 = ARv9 level after SSO transfection of prostate cancer cells; details: prostate cancer cell lines LN95, VCaP; 6.25-400 nM transfected; vs Scramble/Scr control; FIG. 2
Method: as §3

LN95 cells = experiment: Prostate cancer cell proliferation (Incucyte % confluence) after SSO transfection; details: 100 nM, transfected twice, 7 days, −/+ enzalutamide, vs Scr, FIG. 4
Method: As depicted in FIG. 4, ARv7 SSO-6 inhibits prostate cancer cell (LN95) proliferation. Briefly, a total of 100 nM of ARv7 SSO-6 or 100 nM of Scrambled SSO was diluted in Opti-MEM and mixed with 2 uL Dharmafect 1 for a total of 200 uL. The SSO-transfection reagent mixtures were incubated for 10 minutes at room temperature followed by plating in a 12 well plate. A total of 250,000 LN95 cells diluted in 800 uL Optimem were seeded atop the SSO-transfection reagent mixtures and incubated for 4 hours at 37 C and 5% CO2 in a humidified incubator. Media was replaced with complete media after 4 hours (RPMI+10% charcoal stripped FBS). 72 hours later cells were lifted using 0.25% trypsin and the transfection procedure was repeated. 4 hours after transfection media was replaced with complete media and cells were gently resuspended by pipetting up and down. Cells were then seeded in to a 96 well plate at 10,000 cells/well and the plate was placed in to the Incucyte S3 live cell imager (Essen Bioscience) and incubated at 37° C. and 5% CO2 for 7 days. % confluence was calculated once per day and fold change from 0 hr was calculated for each time point.

## TTGCCAACCCGGAATTTTTCTAGTATGA (all phosphorodiamidate morpholino (PMO)) [ARv7 morph 1]
ARv7 [1]
  ARv7 (fold change from control morpholino): dose-dependent decrease
Full length AR [2]
  full length AR: maintenance

## mC*mA*mG*mC*mC*mT*mT*mT*mC*mT*mT*mC*mA*mG*mG*mG*mT*mC (CAGCCTTTCTTCAGGGTC; all 2'-O-methyl, all phosphorothioate, T or U not given here) [Arv7 Cons1]
ARv7 [3]; LN95, 12.5, 25, 50 nM transfected, 72 h, vs Scrambled SSO, FIG. 5
  ARv7 RNA (fold change from Scramble): decreases ARv7 RNA in a dose-dependent manner

## mG*mC*mC*mA*mA*mC*mC*mC*mG*mG*mA*mA*mU*mU*mU*mU*mU*mC [ARv7 SSO-6]
ARv7 [3]; prostate cancer cell lines LN95, VCaP, 6.25, 25, 100, 400 nM transfected, 72 or 96 h, FIG. 2
  ARv7 (fold change from Scramble): dose dependent decrease
Full length AR [4]
  full length AR: maintenance
ARv9
  ARv9: maintenance
LN95 cells
  prostate cancer cell proliferation (% confluence, fold change from 0 hr): inhibits

## mG*mC*mC*mA*mA*mC*mC*mC*mG*mG*mA*mA*mU*mU*mU*mU*mU*mC* mU*mA*mG*mU [ARv7 SSO-6ext]
ARv7 [3]; LN95, 100 nM transfected, FIG. 3
  ARv7 (fold change from Scramble): decrease
